Blank lines part the entries; values can stand above or below the compound they belong to. Active and inactive are the calls of the source. No cut-off for these calls is given here.
Assays:
HL-60 [1] = assay: The compound was tested in vitro for its cytotoxicity against human HL-60 cancer cell line by MTT method at 1 uM concentration; No inhibition; type: functional, cell-based
P388 [2] = assay: The compound was tested in vitro for its cytotoxicity against […] P-388 cancer cell line by MTT method at 1 uM concentration; No inhibition; type: functional, cell-based; conditions: Mus musculus
A549 [3] = assay: The compound was tested in vitro for its cytotoxicity against human A-549 cancer cell line by MTT method at 1 uM concentration; No inhibition; type: functional, cell-based
HL-60 [4] = assay: The compound was tested in vitro for its cytotoxicity against human HL-60 cancer cell line by MTT method at 1 uM concentration; Slight inhibition; type: functional, cell-based
A549 [5] = assay: The compound was tested in vitro for its cytotoxicity against human A-549 cancer cell line by MTT method at 1 uM concentration; Slight inhibition; type: functional, cell-based
P388 [6] = assay: The compound was tested in vitro for its cytotoxicity against […] P-388 cancer cell line by MTT method at 1 uM concentration; Slight inhibition; type: functional, cell-based; conditions: Mus musculus
WI-38 = assay: Tested in vitro for inhibitory effect on the growth of WI-38 cell line; No cytotoxicity; type: functional, cell-based, Homo sapiens
SGC-7901 = assay: Tested in vitro for inhibitory effect on the growth of human gastric carcinoma SGC-7901 cell line; type: functional, cell-based
Bel-7402 = assay: Tested in vitro for inhibitory effect on the growth of BEL -7402 cell line; type: functional, cell-based; conditions: Homo sapiens
K562 = assay: Tested in vitro for inhibitory effect on the growth of K-562 cell line; type: functional, cell-based; conditions: Homo sapiens
MCF7 = assay: Tested in vitro for inhibitory effect on the growth of MCF-7 cell line; type: functional, cell-based; conditions: Homo sapiens
A549 [7] = assay: Tested in vitro for inhibitory effect on the growth of human A-549 cancer cell line; type: functional, cell-based
HL-60 [8] = assay: The compound was tested in vitro for its cytotoxicity against human HL-60 cancer cell line by MTT method at 1 uM concentration; Total inhibition; type: functional, cell-based
P388 [9] = assay: The compound was tested in vitro for its cytotoxicity against […] P-388 cancer cell line by MTT method at 1 uM concentration; Total inhibition; type: functional, cell-based
A549 [10] = assay: The compound was tested in vitro for its cytotoxicity against human A-549 cancer cell line by MTT method at 1 uM concentration; Significant inhibition; type: functional, cell-based
[11] = molecular target: T1, DNA polymerase I, thermostable (Thermus aquaticus, UniProt P19821); assay: Tested for 50% inhibition against Taq DNA polymerase at the concentration of 20 uM; No inhibition
[12] = molecular target: Telomerase reverse transcriptase (Homo sapiens, UniProt O14746); assay: Tested for 50% inhibition against Telomerase
[13] = molecular target: T1, DNA polymerase I, thermostable; assay: Tested for 50% inhibition against Taq DNA polymerase at the concentration of 10 uM; No inhibition
HL-60 [14] = assay: The compound was tested in vitro for its cytotoxicity against human HL-60 cancer cell line by MTT method at 1 uM concentration; Significant inhibition; type: functional, cell-based
[15] = molecular target: T1, DNA polymerase I, thermostable; assay: Tested for 50% inhibition against Taq DNA polymerase at the concentration of 50 uM; No inhibition

T1 sequence (P19821 whole entry): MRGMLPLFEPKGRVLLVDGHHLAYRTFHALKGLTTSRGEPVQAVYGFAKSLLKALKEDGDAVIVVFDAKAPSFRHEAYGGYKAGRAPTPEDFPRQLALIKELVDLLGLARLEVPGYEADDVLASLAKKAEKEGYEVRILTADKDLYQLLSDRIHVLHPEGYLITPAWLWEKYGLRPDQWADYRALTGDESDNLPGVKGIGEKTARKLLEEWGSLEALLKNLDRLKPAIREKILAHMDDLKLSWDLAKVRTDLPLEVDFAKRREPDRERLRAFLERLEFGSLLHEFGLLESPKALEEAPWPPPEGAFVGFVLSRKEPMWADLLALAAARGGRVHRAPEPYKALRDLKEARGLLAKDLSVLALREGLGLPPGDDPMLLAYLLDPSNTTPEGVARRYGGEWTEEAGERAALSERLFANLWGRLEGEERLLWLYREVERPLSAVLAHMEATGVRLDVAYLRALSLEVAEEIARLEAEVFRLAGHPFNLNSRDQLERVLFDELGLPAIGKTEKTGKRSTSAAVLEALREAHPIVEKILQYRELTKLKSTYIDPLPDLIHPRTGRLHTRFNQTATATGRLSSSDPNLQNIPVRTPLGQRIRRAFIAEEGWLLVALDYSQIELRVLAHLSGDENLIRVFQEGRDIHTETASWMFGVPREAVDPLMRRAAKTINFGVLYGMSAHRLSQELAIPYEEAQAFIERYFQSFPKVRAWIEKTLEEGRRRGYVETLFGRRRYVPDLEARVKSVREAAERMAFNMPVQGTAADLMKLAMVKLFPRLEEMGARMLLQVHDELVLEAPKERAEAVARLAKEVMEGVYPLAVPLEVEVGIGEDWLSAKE
Chain of Telomerase reverse transcriptase (O14746 whole entry): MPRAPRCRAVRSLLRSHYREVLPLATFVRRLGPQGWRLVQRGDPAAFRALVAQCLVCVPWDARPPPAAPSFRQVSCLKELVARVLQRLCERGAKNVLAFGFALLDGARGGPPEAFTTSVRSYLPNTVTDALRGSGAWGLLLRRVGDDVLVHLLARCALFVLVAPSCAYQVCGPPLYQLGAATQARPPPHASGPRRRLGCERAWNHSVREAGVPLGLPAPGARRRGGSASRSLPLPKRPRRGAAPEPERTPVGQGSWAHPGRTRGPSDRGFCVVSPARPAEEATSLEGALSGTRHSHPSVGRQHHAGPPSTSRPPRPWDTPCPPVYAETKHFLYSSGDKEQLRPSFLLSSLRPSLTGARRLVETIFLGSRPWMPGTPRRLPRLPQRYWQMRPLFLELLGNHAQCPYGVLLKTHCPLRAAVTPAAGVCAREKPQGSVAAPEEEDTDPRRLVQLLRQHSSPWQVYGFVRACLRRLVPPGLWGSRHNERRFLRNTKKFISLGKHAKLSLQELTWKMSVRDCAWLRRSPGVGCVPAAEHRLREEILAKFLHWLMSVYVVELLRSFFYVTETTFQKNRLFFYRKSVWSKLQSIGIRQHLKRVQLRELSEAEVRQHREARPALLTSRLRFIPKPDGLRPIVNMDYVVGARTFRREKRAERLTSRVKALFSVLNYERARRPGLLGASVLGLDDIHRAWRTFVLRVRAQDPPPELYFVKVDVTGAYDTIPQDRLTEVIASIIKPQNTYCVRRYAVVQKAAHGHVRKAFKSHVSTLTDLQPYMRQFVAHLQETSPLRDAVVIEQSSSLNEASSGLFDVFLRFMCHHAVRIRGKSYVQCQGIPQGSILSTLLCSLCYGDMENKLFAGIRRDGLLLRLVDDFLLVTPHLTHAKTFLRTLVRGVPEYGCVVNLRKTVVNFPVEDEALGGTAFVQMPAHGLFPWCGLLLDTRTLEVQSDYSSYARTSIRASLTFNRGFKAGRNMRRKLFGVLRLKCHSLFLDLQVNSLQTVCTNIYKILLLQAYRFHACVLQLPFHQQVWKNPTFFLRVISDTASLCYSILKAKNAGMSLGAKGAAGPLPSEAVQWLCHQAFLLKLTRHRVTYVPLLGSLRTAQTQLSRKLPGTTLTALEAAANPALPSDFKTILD

SMILES: CC(C)=CCC(OC(=O)c1ccccc1)C1=CC(=O)c2c(O)ccc(O)c2C1=O (centres undefined)
Activity (HL-60 [1]): inactive
Activity (P388 [2]): inactive
Activity (A549 [3]): inactive

SMILES: CC(C)=CCC(O)C1=CC(=O)c2c(O)ccc(O)c2C1=O (centres undefined)
Activity (HL-60 [4]): Slight inhibition
Activity (A549 [5]): Slight inhibition
Activity (P388 [6]): Slight inhibition

SMILES: CCCC(=O)OC(CC=C(C)C)C1=CC(=O)c2c(O)ccc(O)c2C1=O (centres undefined)
Activity (HL-60 [4]): Slight inhibition
Activity (P388 [2]): inactive
Activity (A549 [3]): inactive

IC50 (SGC-7901): 49 µM
IC50 (Bel-7402): 67 µM
IC50 (K562): 31 µM
IC50 (MCF7): 93 µM
IC50 (A549 [7]): 390 µM
SMILES: CC(C)=CCC(OC(=O)c1ccc2ccccc2c1)C1=CC(=O)c2c(O)ccc(O)c2C1=O (centres undefined)
IC50 (WI-38): No cytotoxicity
Activity (HL-60 [4]): Slight inhibition
Activity (P388 [2]): inactive
Activity (A549 [3]): inactive

SMILES: CCCCCCCCCCCC(=O)OC(CC=C(C)C)C1=CC(=O)c2c(O)ccc(O)c2C1=O (centres undefined)
Activity (HL-60 [4]): Slight inhibition
Activity (A549 [5]): Slight inhibition
Activity (P388 [2]): inactive

SMILES: CC1(C)CC[C@@H](C2=CC(=O)c3c(O)ccc(O)c3C2=O)O1
Activity (HL-60 [8]): Total inhibition
Activity (P388 [9]): Total inhibition
Activity (A549 [3]): inactive

IC50 (SGC-7901): 0.001 µM
IC50 (Bel-7402): 0.00017 µM
IC50 (K562): 18 µM
IC50 (MCF7): 250 µM
IC50 (A549 [7]): 0.016 µM
SMILES: CC(C)=CCC(OC(=O)CCCCC(C)C)C1=CC(=O)c2c(O)ccc(O)c2C1=O (centres undefined)
IC50 (WI-38): No cytotoxicity
Activity (HL-60 [4]): Significant inhibition
Activity (P388 [2]): inactive
Activity (A549 [10]): Significant inhibition

SMILES: CC(C)=CCC(OC(=O)c1cccnc1)C1=CC(=O)c2c(O)ccc(O)c2C1=O (centres undefined)
Activity (HL-60 [4]): Slight inhibition
Activity (P388 [2]): inactive
Activity (A549 [3]): inactive

SMILES: CC(C)=CCC(OC(=O)Cc1c[nH]c2ccccc12)C1=CC(=O)c2c(O)ccc(O)c2C1=O (centres undefined)
Activity (HL-60 [4]): Slight inhibition
Activity (P388 [2]): inactive
Activity (A549 [3]): inactive

SMILES: CC(C)=CC[C@H](O)C1=CC(=O)c2c(O)ccc(O)c2C1=O
Activity (HL-60 [4]): Slight inhibition
Activity (A549 [5]): Slight inhibition
Activity (P388 [6]): Slight inhibition

SMILES: CC(C)=CCC(OC(=O)COc1ccc2ccccc2c1)C1=CC(=O)c2c(O)ccc(O)c2C1=O (centres undefined)
Activity (HL-60 [4]): Slight inhibition
Activity (P388 [2]): inactive
Activity (A549 [3]): inactive

SMILES: CC(C)=CC[C@@H](O)C1=CC(=O)c2c(O)ccc(O)c2C1=O
Activity (HL-60 [4]): Slight inhibition
Activity (A549 [5]): Slight inhibition
Activity (P388 [6]): Slight inhibition

SMILES: CC1(C)CC[C@H](C2=CC(=O)c3c(O)ccc(O)c3C2=O)O1
Activity (HL-60 [8]): Total inhibition
Activity (P388 [9]): Total inhibition
Activity (A549 [3]): inactive

SMILES: CC(C)=CCC(OC(=O)c1cccc2ccccc12)C1=CC(=O)c2c(O)ccc(O)c2C1=O (centres undefined)
Activity (HL-60 [4]): Slight inhibition
Activity (P388 [2]): inactive
Activity (A549 [3]): inactive

SMILES: CC(C)=CCC(OC(=O)COCc1ccccc1)C1=CC(=O)c2c(O)ccc(O)c2C1=O (centres undefined)
Activity (P388 [2]): inactive
Activity (A549 [3]): inactive

IC50 (SGC-7901): 0.29 µM
IC50 (Bel-7402): 0.068 µM
IC50 [11]: Not Active
IC50 [12]: 37.3 µM
IC50 (K562): 29 µM
IC50 [13]: Not Active
IC50 (MCF7): 31 µM
IC50 [15]: Not Active
IC50 (A549 [7]): 39 µM
SMILES: CC(=O)O[C@H](CC=C(C)C)C1=CC(=O)c2c(O)ccc(O)c2C1=O [ACETYLSHIKONIN]
IC50 (WI-38): No cytotoxicity
Activity (HL-60 [14]): Significant inhibition
Activity (A549 [10]): Significant inhibition
Activity (P388 [6]): Significant inhibition

From ChEMBL document CHEMBL1135112, “Shikonin derivatives: synthesis and inhibition of human telomerase” (Bioorg Med Chem Lett, 2002)
